According to patent US7473692B2, “Sulfonamide derivatives as D3-receptor ligands” (Richter Gedeon Vegyeszeti Gyar Rt., priority 2001, dated 2009):
Structures can show the parent of a compound that is named as a salt.

Key:
[1] = molecular target: T1, rat recombinant D3 receptors expressed in Sf9 cells (Rattus norvegicus, UniProt P19020); test: D3 receptor binding ([3H]-spiperone); details: [3H]-spiperone 0.4 nM; non-specific binding with haloperidol 10 μM
T1 construct: purchased Research Biochemical International D-181; host or cells: Sf9 cells
Experimental: Binding study was carried out on rat recombinant D3 receptors expressed in Sf9 cells using [^3H]-spiperone (0.4 nM) as ligand and haloperidol (10 μM) for determination of non-specific binding.

[2] = molecular target: T2, D2 receptor, rat striatal tissue (Rattus norvegicus, UniProt P61169); test: D2 receptor binding ([3H]-spiperone); details: [3H]-spiperone 0.5 nM, non-specific binding with (±)-sulpiride 10 μM
T2 construct: from tissue; host or cells: rat striatal tissue
Experimental: Binding of [^3H]-spiperone (0.5 nM) to rat striatal tissue was measured according to the method of Seeman (J. Neurochem., 1984, 43 221-235). The non-specific binding was determined in the presence of (±)-sulpiride (10 μM).

T2 sequence (P61169 whole entry): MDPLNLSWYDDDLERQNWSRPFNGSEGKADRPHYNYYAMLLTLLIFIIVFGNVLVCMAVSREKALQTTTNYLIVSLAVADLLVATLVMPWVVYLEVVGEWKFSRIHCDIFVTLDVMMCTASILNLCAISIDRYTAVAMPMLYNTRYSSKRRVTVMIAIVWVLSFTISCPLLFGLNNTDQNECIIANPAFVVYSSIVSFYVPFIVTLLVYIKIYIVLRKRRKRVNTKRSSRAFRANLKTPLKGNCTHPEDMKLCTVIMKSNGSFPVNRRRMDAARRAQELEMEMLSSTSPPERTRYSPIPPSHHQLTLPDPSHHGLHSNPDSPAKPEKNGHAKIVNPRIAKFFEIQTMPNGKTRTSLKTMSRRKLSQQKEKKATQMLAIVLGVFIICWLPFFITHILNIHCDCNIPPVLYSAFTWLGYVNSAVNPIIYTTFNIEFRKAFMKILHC
T1 sequence (P19020 whole entry): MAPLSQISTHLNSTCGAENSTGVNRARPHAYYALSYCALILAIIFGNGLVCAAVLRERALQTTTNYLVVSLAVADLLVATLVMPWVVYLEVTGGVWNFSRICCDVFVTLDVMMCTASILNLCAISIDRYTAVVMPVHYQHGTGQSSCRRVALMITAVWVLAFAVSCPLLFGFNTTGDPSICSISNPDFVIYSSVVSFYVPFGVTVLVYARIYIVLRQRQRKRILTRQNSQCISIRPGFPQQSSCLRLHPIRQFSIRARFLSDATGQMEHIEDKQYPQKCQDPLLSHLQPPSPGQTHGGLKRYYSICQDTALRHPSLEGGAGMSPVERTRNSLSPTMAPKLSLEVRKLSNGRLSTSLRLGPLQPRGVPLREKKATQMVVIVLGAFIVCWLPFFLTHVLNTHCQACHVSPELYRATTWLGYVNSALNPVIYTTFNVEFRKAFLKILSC

SMILES | IC50 [1] [nM] | IC50 [2] [nM] | melting point [°C]
N#Cc1cc(N2CCN(CC[C@H]3CC[C@H](NS(=O)(=O)c4ccc(Cl)s4)CC3)CC2)cc(C(F)(F)F)c1 [compound 70001766, Trans-5-chloro-N-(4-{2-[4-(3-cyano-5-trifluoromethyl-phenyl)-piperazin-1-yl]-ethyl}-cyclohexyl)-2-thiophenesulfonamide] | 5.3 | 128 | 
O=S(=O)(N[C@H]1CC[C@H](CCN2CCC(Cc3cccc(F)c3)CC2)CC1)c1ccc(Cl)cc1 [compound 70001686, Trans-4-chloro-N-(4-{2-[4-(3-fluoro-phenylmethyl)-piperidin-1-yl]-ethyl}-cyclohexyl)-benzenesulfonamide] | 3.9 | 345 | 
COc1cc(-c2ccccc2)ccc1N1CCN(CC[C@H]2CC[C@H](NS(=O)(=O)N(C)C)CC2)CC1 (as salt: hydrochloride) [compound 70001488, Trans-N′-(4-{2-[4-(3-methoxy-biphenyl-4-yl)-piperazin-1-yl]-ethyl}-cyclohexyl)-N,N-dimethyl] |  |  | 243 to 246
CCCCS(=O)(=O)N[C@H]1CC[C@H](CCN2CCN(c3ccc(-c4ccccc4)cc3OC)CC2)CC1 [compound 70001485, Trans-N-(4-{2-[4-(3-methoxy-biphenyl-4-yl)-piperazin-1-yl]-ethyl}-cyclohexyl)-buthanesulfonamide] | 5.5 | 2590 | 
COc1cc(-c2ccccc2)ccc1N1CCN(CC[C@H]2CC[C@H](NS(=O)(=O)N(C)C)CC2)CC1 [compound 70001488, Trans-N′-(4-{2-[4-(3-methoxy-biphenyl-4-yl)-piperazin-1-yl]-ethyl}-cyclohexyl)-N,N-dimethyl] | 4.3 | 245 | 
O=S(=O)(N[C@H]1CC[C@H](CCN2CCC(Nc3cccc(C(F)(F)F)c3)CC2)CC1)c1ccc(Cl)cc1 [compound 70001589, Trans-4-chloro-N-(4-{2-[4-(3-trifluoromethyl-phenylamino)-piperidin-1-yl]-ethyl}-cyclohexyl)-benzenesulfonamide] | 3 | 16 | 

Other lines, results leading:

IC50 [1] [nM] | IC50 [2] [nM] | melting point [°C] | SMILES
2.8 | 66 |  | O=S(=O)(N[C@H]1CC[C@H](CCN2CCC(Oc3cccc(C(F)(F)F)c3)CC2)CC1)c1cccnc1 [compound 70001875, Trans-N-(4-{2-[4-(3-trifluoromethyl-phenoxy)-piperidin-1-yl]-ethyl}-cyclohexyl)-3-pyridinesulfonamide]
0.6 | 110 |  | CCCCS(=O)(=O)N[C@H]1CC[C@H](CCN2CCN(c3cccc(C(F)(F)F)c3)CC2)CC1 [compound 70001596, Trans-N-(4-{2-[4-(3-trifluoromethyl-phenyl)-piperazin-1-yl]-ethyl}-cyclohexyl)-buthanesulfonamide]
2.5 | 102 |  | CCCCS(=O)(=O)N[C@H]1CC[C@H](CCN2CCC(Nc3cccc(C(F)(F)F)c3)CC2)CC1 [compound 70001588, Trans-N-(4-{2-[4-(3-trifluoromethyl-phenylamino)-piperidin-1-yl]-ethyl}-cyclohexyl)-buthanesulfonamide]
1.5 | 290 |  | CN(C)S(=O)(=O)N[C@H]1CC[C@H](CCN2CCN(c3cc(C#N)cc(C(F)(F)F)c3)CC2)CC1 [compound 70001788, Trans-N′-(4-{2-[4-(3-cyano-5-trifluoromethyl-phenyl)-piperazin-1-yl]-ethyl}-cyclohexyl)-N,N-dimethyl-sulfamide]
0.3 | 29 |  | O=S(=O)(N[C@H]1CC[C@H](CCN2CCN(c3cccc(C(F)(F)F)c3)CC2)CC1)c1cccnc1 [compound 70001935, Trans-N-(4-{2-[4-(3-trifluoromethyl-phenyl)-piperazin-1-yl]-ethyl}-cyclohexyl)-3-pyridinesulfoamide]
1 | 109 |  | O=S(=O)(CCCN1CCOCC1)N[C@H]1CC[C@H](CCN2CCN(c3cccc(C(F)(F)F)c3)CC2)CC1 [compound 70001934, Trans-N-(4-{2-[4-(3-trifluoromethyl-phenyl)-piperazin-1-yl]-ethyl}-cyclohexyl)-4-morpholinepropanesulfonamide]
2 | 65 |  | N#Cc1cc(N2CCN(CC[C@H]3CC[C@H](NS(=O)(=O)c4ccc(Cl)cc4)CC3)CC2)cc(C(F)(F)F)c1 [compound 70001492, Trans-4-chloro-N-(4-{2-[4-(3-cyano-5-trifluoromethyl-phenyl)-piperazin-1-yl]-ethyl}-cyclohexyl)-benzenesulfonamide]
